Data reported in patent US10239873B2, “7-azaindole or 4,7-diazaindole derivatives as IKKϵ epsilon and TBK1 inhibitor and pharmaceutical composition comprising same” (GREEN CROSS CORPORATION, priority 2015, dated 2019).

target: T1, TBK1 (Homo sapiens, UniProt Q9UHD2); experiment: ADP-Glo Kinase Assay, inhibition activity on TBK1; format: biochemical
T1 construct: purchased Promega (Invitrogen is also named in the same bracket) V4158; PR8031B; V3991 (not assigned to the two kinases)
T1 sequence (Q9UHD2 1-729): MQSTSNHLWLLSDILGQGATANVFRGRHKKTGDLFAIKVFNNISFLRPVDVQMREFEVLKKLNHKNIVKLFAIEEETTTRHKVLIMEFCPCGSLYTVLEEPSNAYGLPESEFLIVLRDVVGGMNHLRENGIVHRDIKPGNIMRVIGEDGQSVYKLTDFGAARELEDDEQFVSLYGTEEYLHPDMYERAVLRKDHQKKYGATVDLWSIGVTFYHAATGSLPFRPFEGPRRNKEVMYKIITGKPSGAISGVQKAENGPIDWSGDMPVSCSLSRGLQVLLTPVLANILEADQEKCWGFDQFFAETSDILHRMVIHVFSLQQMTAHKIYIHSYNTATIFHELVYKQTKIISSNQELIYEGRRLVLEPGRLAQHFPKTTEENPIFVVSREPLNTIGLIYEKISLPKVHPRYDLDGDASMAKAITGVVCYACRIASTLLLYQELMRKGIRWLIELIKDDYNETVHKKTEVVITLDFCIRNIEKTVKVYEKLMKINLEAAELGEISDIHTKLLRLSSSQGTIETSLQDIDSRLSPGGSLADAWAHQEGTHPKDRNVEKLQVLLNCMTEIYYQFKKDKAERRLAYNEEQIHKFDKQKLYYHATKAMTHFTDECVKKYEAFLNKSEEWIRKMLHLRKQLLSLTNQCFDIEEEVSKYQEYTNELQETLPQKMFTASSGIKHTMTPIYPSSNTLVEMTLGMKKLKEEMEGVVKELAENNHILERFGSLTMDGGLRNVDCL
Outline: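 In 40 mM Tris pH 7.5 with 20 mM MgCl2 and 0.1 mg/mL BSA, each enzyme (IKKε or TBK1 kinase system) was run according to the manufacturer's protocol. ADP formed was detected by ADP-Glo luminescence.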

| IC50 | SMILES |
| --- | --- |
| 460 nM | COc1ccc(-c2cnc3[nH]cc(C4=CCN(C(=O)c5cccs5)CC4)c3c2)cc1F [Example 192, (4-(5-(3-Fluoro-4-methoxyphenyl)-1H-pyrrolo[2,3-b]pyridin-3-yl)-5,6-dihydropyridin-1(2H)-yl)(thiophen-2-yl)methanone] |
| 36 nM | CS(=O)(=O)c1cccc(-c2cnc3[nH]cc(C4=CCN(C(=O)c5cccs5)CC4)c3c2)c1 [Example 193, (4-(5-(3-(Methylsulfonyl)phenyl)-1H-pyrrolo[2,3-b]pyridin-3-yl)-5,6-dihydropyridin-1(2H)-yl)(thiophen-2-yl)methanone] |
| > 10000 nM | CS(=O)(=O)c1ccc(-c2cnc3[nH]cc(C4=CCN(C(=O)c5cccs5)CC4)c3c2)cc1 [Example 194, (4-(5-(4-(methylsulfonyl)phenyl)-1H-pyrrolo[2,3-b]pyridin-3-yl)-5,6-dihydropyridin-1(2H)-yl)(thiophen-2-yl)methanone] |
| 61 nM | CCS(=O)(=O)c1cccc(-c2cnc3[nH]cc(C4=CCN(C(=O)c5cccs5)CC4)c3c2)c1 [Example 195, (4-(5-(3-(ethylsulfonyl)phenyl)-1H-pyrrolo[2,3-b]pyridin-3-yl)-5,6-dihydropyridin-1(2H)-yl)(thiophen-2-yl)methanone] |
| 250 nM | O=C(c1cccs1)N1CC=C(c2c[nH]c3ncc(-c4ccc(S(=O)(=O)C5CC5)cc4)cc23)CC1 [Example 196, (4-(5-(4-(cyclopropylsulfonyl)phenyl)-1H-pyrrolo[2,3-b]pyridin-3-yl)-5,6-dihydropyridin-1(2H)-yl)(thiophen-2-yl)methanone] |
| 28 nM | NS(=O)(=O)c1ccc(-c2cnc3[nH]cc(C4=CCN(C(=O)c5cccs5)CC4)c3c2)cc1 [Example 197, 4-(3-(1-(thiophene-2-carbonyl)-1,2,3,6-tetrahydropyridin-4-yl)-1H-pyrrolo[2,3-b]pyridin-5-yl)benzensulfonamide] |
| 15 nM | NS(=O)(=O)c1cccc(-c2cnc3[nH]cc(C4=CCN(C(=O)c5cccs5)CC4)c3c2)c1 [Example 198, 3-(3-(1-(thiophene-2-carbonyl)-1,2,3,6-tetrahydropyridin-4-yl)-1H-pyrrolo[2,3-b]pyridin-5-yl)benzensulfonamide] |
| 34 nM | CNS(=O)(=O)c1cccc(-c2cnc3[nH]cc(C4=CCN(C(=O)c5cccs5)CC4)c3c2)c1 [Example 199, N-methyl-3-(3-(1-(thiophene-2-carbonyl)-1,2,3,6-tetrahydropyridin-4-yl)-1H-pyrrolo[2,3-b]pyridin-5-yl)benzensulfonamide] |
| 45 nM | CNS(=O)(=O)c1ccc(-c2cnc3[nH]cc(C4=CCN(C(=O)c5cccs5)CC4)c3c2)cc1 [Example 200, N-methyl-4-(3-(1-(thiophene-2-carbonyl)-1,2,3,6-tetrahydropyridin-4-yl)-1H-pyrrolo[2,3-b]pyridin-5-yl)benzensulfonamide] |

More lines, now with the values behind:

| SMILES | IC50 |
| --- | --- |
| NS(=O)(=O)c1ccc(-c2cnc3[nH]cc(C4=CCN(C(=O)OC5CCCC5)CC4)c3c2)cc1 [Example 176, Cyclopentyl 4-(5-(4-sulfamoylphenyl)-1H-pyrrolo[2,3-b]pyridin-3-yl)-5,6-dihydropyridine-1(2H)-carboxylate] | 52 nM |
| CNS(=O)(=O)c1cccc(-c2cnc3[nH]cc(C4=CCN(C(=O)OC5CCCC5)CC4)c3c2)c1 [Example 177, Cyclopentyl 4-(5-(3-(N-methylsulfamoyl)phenyl)-1H-pyrrolo[2,3-b]pyridin-3-yl)-5,6-dihydropyridine-1(2H)-carboxylate] | 97 nM |
| CNS(=O)(=O)c1ccc(-c2cnc3[nH]cc(C4=CCN(C(=O)OC5CCCC5)CC4)c3c2)cc1 [Example 178, Cyclopentyl 4-(5-(4-(N-methylsulfamoyl)phenyl)-1H-pyrrolo[2,3-b]pyridin-3-yl)-5,6-dihydropyridine-1(2H)-carboxylate] | 170 nM |
| O=C(OC1CCCC1)N1CC=C(c2c[nH]c3ncc(-c4cccc(S(=O)(=O)N5CCOCC5)c4)cc23)CC1 [Example 180, Cyclopentyl 4-(5-(3-(morpholinosulfonyl)phenyl)-1H-pyrrolo[2,3-b]pyridin-3-yl)-5,6-dihydropyridine-1(2H)-carboxylate] | 400 nM |
| O=C(OC1CCCC1)N1CC=C(c2c[nH]c3ncc(-c4ccc(S(=O)(=O)N5CCOCC5)cc4)cc23)CC1 [Example 181, Cyclopentyl 4-(5-(4-(morpholinosulfonyl)phenyl)-1H-pyrrolo[2,3-b]pyridin-3-yl)-5,6-dihydropyridine-1(2H)-carboxylate] | 370 nM |
| COc1ccc(-c2cnc3[nH]cc(C4=CCN(C(=O)OC5CCCC5)CC4)c3c2)cc1S(=O)(=O)N1CCOCC1 [Example 182, Cyclopentyl 4-(5-(4-methoxy-3-(morpholinosulfonyl)phenyl)-1H-pyrrolo[2,3-b]pyridin-3-yl)-5,6-dihydropyridine-1(2H)-carboxylate] | 180 nM |
| O=C(OC1CCCC1)N1CC=C(c2c[nH]c3ncc(-c4ccc(C(=O)N5CCOCC5)cc4)cc23)CC1 [Example 183, Cyclopentyl 4-(5-(4-(morpholine-4-carbonyl)phenyl)-1H-pyrrolo[2,3-b]pyridin-3-yl)-5,6-dihydropyridine-1(2H)-carboxylate] | 39 nM |
| O=C(OC1CCCC1)N1CC=C(c2c[nH]c3ncc(-c4cccc(C(=O)N5CCOCC5)c4)cc23)CC1 [Example 184, Cyclopentyl 4-(5-(3-(morpholine-4-carbonyl)phenyl)-1H-pyrrolo[2,3-b]pyridin-3-yl)-5,6-dihydropyridine-1(2H)-carboxylate] | 100 nM |
| O=C(OC1CCCC1)N1CC=C(c2c[nH]c3ncc(-c4csc(CN5CCOCC5)c4)cc23)CC1 [Example 185, Cyclopentyl 4-(5-(5-(morpholinomethyl)thiophen-3-yl)-1H-pyrrolo[2,3-b]pyridin-3-yl)-5,6-dihydropyridine-1(2H)-carboxylate] | 81 nM |
| O=C(OC1CCCC1)N1CC=C(c2c[nH]c3ncc(-c4ccc(CN5CCOCC5)s4)cc23)CC1 [Example 186, Cyclopentyl 4-(5-(5-(morpholinomethyl)thiophen-2-yl)-1H-pyrrolo[2,3-b]pyridin-3-yl)-5,6-dihydropyridine-1(2H)-carboxylate] | 160 nM |
| COc1ccc(-c2cnc3[nH]cc(C4=CCCN(C(=O)OC(C)(C)C)CC4)c3c2)cc1OC [Example 187, tert-Butyl 4-(5-(3,4-dimethoxyphenyl)-1H-pyrrolo[2,3-b]pyridin-3-yl)-2,3,6,7-tetrahydro-1H-azepine-1-carboxylate] | 3300 nM |
| COc1ccc(-c2cnc3[nH]cc(C4=CCN(C(=O)OC(C)(C)C)CCC4)c3c2)cc1OC [Example 188, tert-Butyl 5-(5-(3,4-dimethoxyphenyl)-1H-pyrrolo[2,3-b]pyridin-3-yl)-2,3,4,7-tetrahydro-1H-azepine-1-carboxylate] | 4900 nM |
| O=C(c1cccs1)N1CC=C(c2c[nH]c3ncc(-c4ccc(F)c(F)c4)cc23)CC1 [Example 189, (4-(5-(3,4-Difluorophenyl)-1H-pyrrolo[2,3-b]pyridin-3-yl)-5,6-dihydropyridin-1(2H)-yl)(thiophen-2-yl)methanone] | > 10000 nM |
| COc1ccc(-c2cnc3[nH]cc(C4=CCN(C(=O)c5cccs5)CC4)c3c2)cc1OC [Example 191, (4-(5-(3,4-Dimethoxyphenyl)-1H-pyrrolo[2,3-b]pyridin-3-yl)-5,6-dihydropyridin-1(2H)-yl)(thiophen-2-yl)methanone] | 110 nM |
